Data published in the kinase profiling compilation of Christmann-Franck et al. (2016).

How the values were obtained:
[1] = target: BRSK1 (human) (UniProt Q8TDC3); assay: radiometric filter-binding kinase assay
[2] = target: BRSK2 (human) (UniProt Q8IWQ3); assay: radiometric filter-binding kinase assay
[3] = target: BTK (human) (UniProt Q06187); assay: radiometric filter-binding kinase assay
[4] = target: DYRK1A (human) (UniProt Q13627); assay: radiometric filter-binding kinase assay
[5] = target: DYRK2 (human) (UniProt Q92630); assay: radiometric filter-binding kinase assay
[6] = target: EEF2K (human) (UniProt O00418); assay: radiometric filter-binding kinase assay
[7] = target: EPHA2 (human) (UniProt P29317); assay: radiometric filter-binding kinase assay
[8] = target: MAP3K11 (human) (UniProt Q16584); assay: radiometric filter-binding kinase assay
[9] = target: MAP3K7 TAB1 (human) (UniProt Q15750+O43318); assay: radiometric filter-binding kinase assay
[10] = target: MAPK1 (human) (UniProt P28482); assay: radiometric filter-binding kinase assay
[11] = target: MAPK12 (human) (UniProt P53778); assay: radiometric filter-binding kinase assay
[12] = target: MAPK13 (human) (UniProt O15264); assay: radiometric filter-binding kinase assay
[13] = target: MAPK14 (human) (UniProt Q16539); assay: radiometric filter-binding kinase assay
[14] = target: MAPK8 (human) (UniProt P45983); assay: radiometric filter-binding kinase assay
[15] = target: MARK3 (human) (UniProt P27448); assay: radiometric filter-binding kinase assay
[16] = target: MELK (human) (UniProt Q14680); assay: radiometric filter-binding kinase assay
[17] = target: MKNK1 (human) (UniProt Q9BUB5); assay: radiometric filter-binding kinase assay
[18] = target: MYLK (human) (UniProt Q15746); assay: radiometric filter-binding kinase assay
[19] = target: NEK2 (human) (UniProt P51955); assay: radiometric filter-binding kinase assay
[20] = target: NEK6 (human) (UniProt Q9HC98); assay: radiometric filter-binding kinase assay
[21] = target: NUAK1 (human) (UniProt O60285); assay: radiometric filter-binding kinase assay
[22] = target: PAK4 (human) (UniProt O96013); assay: radiometric filter-binding kinase assay
[23] = target: PLK1 (human) (UniProt P53350); assay: radiometric filter-binding kinase assay
[24] = target: RIPK2 (human) (UniProt O43353); assay: radiometric filter-binding kinase assay
[25] = system: ROCK2 (rat); assay: radiometric filter-binding kinase assay; details: accession and sequence are those of the human protein
[26] = target: TBK1 (human) (UniProt Q9UHD2); assay: radiometric filter-binding kinase assay
[27] = target: AURKA (human) (UniProt O14965); assay: SelectScreen, TR FRET
[28] = target: AURKB (human) (UniProt Q96GD4); assay: SelectScreen, TR FRET
[29] = target: CHEK2 (human) (UniProt O96017); assay: SelectScreen, TR FRET
[30] = target: DCLK2 (human) (UniProt Q8N568); assay: SelectScreen, TR FRET
[31] = target: LRRK2 (human) (UniProt Q5S007); assay: SelectScreen, TR FRET
[32] = target: MKNK2 (human) (UniProt Q9HBH9); assay: SelectScreen, TR FRET
[33] = target: MYLK (human) (UniProt Q15746); assay: SelectScreen, TR FRET
[34] = target: NUAK1 (human) (UniProt O60285); assay: SelectScreen, TR FRET
[35] = target: PLK1 (human) (UniProt P53350); assay: SelectScreen, TR FRET

NUAK1 (human), sequence (O60285 whole entry, looked up): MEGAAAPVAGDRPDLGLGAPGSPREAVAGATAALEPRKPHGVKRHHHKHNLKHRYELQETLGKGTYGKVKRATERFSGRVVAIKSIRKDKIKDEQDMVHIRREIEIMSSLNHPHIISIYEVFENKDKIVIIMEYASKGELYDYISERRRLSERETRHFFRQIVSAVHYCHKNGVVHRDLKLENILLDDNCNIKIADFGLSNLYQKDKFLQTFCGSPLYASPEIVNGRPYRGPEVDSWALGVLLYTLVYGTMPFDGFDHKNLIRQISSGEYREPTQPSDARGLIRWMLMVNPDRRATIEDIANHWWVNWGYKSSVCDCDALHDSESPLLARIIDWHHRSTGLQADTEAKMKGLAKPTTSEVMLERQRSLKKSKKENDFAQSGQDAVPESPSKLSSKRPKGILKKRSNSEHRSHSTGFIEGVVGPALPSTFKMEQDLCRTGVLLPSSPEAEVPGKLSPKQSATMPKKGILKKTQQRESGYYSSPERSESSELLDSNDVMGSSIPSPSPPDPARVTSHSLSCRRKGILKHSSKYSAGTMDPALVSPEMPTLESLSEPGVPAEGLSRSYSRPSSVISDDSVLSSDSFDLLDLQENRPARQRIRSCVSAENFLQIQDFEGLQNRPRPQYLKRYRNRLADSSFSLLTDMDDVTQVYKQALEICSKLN
MYLK (human), sequence (Q15746 whole entry, looked up): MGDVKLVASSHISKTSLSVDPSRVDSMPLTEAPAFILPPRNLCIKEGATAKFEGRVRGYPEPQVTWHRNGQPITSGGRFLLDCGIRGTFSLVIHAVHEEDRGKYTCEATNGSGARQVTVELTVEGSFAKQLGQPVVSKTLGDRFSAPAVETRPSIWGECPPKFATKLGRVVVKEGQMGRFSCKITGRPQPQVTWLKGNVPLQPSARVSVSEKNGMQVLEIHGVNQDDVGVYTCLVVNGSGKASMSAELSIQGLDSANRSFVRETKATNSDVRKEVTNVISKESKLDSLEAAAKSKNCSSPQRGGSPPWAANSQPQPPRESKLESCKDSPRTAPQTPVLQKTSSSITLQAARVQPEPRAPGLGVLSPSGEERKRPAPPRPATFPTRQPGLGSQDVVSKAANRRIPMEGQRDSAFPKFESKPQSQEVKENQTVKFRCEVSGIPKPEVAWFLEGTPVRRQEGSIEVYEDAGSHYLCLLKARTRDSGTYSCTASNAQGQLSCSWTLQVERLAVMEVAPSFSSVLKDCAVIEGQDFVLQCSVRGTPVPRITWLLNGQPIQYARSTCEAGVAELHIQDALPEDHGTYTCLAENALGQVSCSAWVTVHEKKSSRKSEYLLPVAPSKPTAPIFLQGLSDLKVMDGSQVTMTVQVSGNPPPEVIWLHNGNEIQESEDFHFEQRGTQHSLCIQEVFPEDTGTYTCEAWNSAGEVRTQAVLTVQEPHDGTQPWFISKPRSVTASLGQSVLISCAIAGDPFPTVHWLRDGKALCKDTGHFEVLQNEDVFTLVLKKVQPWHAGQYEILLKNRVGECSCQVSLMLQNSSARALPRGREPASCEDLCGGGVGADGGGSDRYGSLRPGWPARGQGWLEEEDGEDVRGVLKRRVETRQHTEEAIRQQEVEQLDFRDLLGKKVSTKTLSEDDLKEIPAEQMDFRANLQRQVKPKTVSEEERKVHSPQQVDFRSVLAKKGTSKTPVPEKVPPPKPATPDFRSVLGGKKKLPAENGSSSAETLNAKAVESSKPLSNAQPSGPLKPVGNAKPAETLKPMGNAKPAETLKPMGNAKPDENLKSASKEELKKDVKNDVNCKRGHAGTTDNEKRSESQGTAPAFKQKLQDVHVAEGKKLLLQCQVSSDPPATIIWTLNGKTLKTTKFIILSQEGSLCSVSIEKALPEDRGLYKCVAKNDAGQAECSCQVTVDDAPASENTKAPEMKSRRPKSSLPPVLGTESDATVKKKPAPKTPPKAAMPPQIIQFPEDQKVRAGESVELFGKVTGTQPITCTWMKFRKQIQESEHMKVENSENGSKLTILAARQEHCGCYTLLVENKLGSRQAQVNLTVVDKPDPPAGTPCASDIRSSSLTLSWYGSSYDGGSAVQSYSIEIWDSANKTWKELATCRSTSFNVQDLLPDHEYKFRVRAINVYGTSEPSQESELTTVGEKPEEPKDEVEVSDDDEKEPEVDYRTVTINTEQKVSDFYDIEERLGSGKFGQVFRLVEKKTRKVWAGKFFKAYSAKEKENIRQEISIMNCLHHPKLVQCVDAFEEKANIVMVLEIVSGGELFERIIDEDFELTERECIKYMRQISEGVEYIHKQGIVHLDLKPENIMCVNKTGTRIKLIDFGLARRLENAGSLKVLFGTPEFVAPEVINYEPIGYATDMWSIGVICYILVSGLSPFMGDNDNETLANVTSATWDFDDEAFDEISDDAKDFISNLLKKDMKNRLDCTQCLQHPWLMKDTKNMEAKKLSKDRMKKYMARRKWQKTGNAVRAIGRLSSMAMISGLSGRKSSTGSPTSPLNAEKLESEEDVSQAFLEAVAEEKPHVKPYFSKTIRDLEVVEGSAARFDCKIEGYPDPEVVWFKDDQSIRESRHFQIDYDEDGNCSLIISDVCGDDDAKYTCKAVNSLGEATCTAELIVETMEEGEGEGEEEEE
PLK1 (human), sequence (P53350 whole entry, looked up): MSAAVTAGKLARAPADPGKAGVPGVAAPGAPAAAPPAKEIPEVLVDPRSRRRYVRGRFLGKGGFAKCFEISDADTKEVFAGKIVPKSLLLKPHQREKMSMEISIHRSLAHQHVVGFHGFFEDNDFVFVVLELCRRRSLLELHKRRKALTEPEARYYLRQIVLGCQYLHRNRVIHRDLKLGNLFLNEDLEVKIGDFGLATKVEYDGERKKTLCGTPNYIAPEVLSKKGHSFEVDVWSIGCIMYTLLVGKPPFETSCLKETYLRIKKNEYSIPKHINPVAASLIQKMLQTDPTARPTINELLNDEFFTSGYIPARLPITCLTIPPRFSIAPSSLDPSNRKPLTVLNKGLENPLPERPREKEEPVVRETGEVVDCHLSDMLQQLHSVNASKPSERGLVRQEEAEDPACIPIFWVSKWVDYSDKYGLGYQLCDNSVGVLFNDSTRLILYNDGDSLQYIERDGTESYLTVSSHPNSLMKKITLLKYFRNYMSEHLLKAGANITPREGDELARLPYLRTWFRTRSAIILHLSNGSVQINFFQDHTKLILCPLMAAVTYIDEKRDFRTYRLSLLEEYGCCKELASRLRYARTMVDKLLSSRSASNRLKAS
BRSK2 (human), sequence (Q8IWQ3 whole entry, looked up): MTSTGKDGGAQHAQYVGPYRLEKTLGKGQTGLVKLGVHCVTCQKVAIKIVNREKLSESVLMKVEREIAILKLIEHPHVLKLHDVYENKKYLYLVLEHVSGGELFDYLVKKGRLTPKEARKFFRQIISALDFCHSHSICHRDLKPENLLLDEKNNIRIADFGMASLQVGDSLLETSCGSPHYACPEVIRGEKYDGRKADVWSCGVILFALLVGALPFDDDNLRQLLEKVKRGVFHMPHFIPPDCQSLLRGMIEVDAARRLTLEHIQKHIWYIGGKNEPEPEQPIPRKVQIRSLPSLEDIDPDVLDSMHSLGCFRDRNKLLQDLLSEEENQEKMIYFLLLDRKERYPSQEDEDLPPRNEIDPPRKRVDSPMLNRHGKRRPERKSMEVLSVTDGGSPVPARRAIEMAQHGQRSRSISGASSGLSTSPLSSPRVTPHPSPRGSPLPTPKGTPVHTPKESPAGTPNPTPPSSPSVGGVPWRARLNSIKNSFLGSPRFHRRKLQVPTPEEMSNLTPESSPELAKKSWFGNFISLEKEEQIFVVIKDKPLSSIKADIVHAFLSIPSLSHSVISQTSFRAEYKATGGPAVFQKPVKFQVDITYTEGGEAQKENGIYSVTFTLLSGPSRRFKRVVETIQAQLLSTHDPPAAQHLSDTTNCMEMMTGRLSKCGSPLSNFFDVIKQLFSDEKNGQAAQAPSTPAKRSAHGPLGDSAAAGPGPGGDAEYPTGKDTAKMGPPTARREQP
MAP3K11 (human), sequence (Q16584 whole entry, looked up): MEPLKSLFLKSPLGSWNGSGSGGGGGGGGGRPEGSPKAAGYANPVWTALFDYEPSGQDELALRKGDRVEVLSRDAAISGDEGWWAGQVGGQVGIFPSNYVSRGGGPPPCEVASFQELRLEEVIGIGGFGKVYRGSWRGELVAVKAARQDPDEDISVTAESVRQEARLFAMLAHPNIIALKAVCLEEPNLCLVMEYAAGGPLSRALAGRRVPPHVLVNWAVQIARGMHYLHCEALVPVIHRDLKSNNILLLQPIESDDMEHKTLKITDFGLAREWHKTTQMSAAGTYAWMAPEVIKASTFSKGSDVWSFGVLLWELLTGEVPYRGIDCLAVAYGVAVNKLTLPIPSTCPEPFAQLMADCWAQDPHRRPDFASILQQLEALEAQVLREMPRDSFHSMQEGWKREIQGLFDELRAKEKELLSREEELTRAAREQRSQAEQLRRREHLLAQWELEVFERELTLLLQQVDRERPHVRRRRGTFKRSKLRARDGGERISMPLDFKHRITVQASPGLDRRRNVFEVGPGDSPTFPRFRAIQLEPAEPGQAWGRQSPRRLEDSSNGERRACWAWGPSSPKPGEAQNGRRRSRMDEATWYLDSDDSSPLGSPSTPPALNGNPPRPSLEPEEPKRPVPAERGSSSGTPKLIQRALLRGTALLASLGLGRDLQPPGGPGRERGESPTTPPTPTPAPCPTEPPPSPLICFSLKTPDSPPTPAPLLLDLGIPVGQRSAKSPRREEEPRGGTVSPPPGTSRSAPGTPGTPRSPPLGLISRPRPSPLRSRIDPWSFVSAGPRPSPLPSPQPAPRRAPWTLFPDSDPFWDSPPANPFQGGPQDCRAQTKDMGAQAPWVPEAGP
NEK6 (human), sequence (Q9HC98 whole entry, looked up): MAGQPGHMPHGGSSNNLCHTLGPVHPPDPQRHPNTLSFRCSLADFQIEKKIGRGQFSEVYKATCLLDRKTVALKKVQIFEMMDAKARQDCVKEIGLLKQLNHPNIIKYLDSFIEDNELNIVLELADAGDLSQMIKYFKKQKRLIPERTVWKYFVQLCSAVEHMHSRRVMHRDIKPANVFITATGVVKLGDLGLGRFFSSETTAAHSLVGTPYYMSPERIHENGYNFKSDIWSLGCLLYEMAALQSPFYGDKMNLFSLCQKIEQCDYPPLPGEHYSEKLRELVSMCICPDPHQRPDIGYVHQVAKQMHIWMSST

Compound: COc1cc(C(=O)N2CCC(N3CCN(C)CC3)CC2)ccc1Nc1ncc2c(n1)N(C)c1ccccc1C(=O)N2C
- residual activity ([1]; compound 1.0 µM): 83%
- residual activity ([1]; compound 10.0 µM): 78%
- residual activity ([2]; compound 1.0 µM): 89%
- residual activity ([2]; compound 10.0 µM): 87%
- residual activity ([3]; compound 1.0 µM): 95%
- residual activity ([3]; compound 10.0 µM): 75%
- residual activity ([4]; compound 1.0 µM): 87%
- residual activity ([4]; compound 10.0 µM): 95%
- residual activity ([5]; compound 1.0 µM): 90%
- residual activity ([5]; compound 10.0 µM): 98%
- residual activity ([6]; compound 1.0 µM): 75%
- residual activity ([6]; compound 10.0 µM): 82%
- residual activity ([7]; compound 1.0 µM): 98%
- residual activity ([7]; compound 10.0 µM): 91%
- residual activity ([8]; compound 1.0 µM): 94%
- residual activity ([8]; compound 10.0 µM): 84%
- residual activity ([9]; compound 1.0 µM): 85%
- residual activity ([9]; compound 10.0 µM): 82%
- residual activity ([10]; compound 1.0 µM): 83%
- residual activity ([10]; compound 10.0 µM): 85%
- residual activity ([11]; compound 1.0 µM): 90%
- residual activity ([11]; compound 10.0 µM): 106%
- residual activity ([12]; compound 1.0 µM): 102%
- residual activity ([12]; compound 10.0 µM): 106%
- residual activity ([13]; compound 1.0 µM): 95%
- residual activity ([13]; compound 10.0 µM): 96%
- residual activity ([14]; compound 1.0 µM): 85%
- residual activity ([14]; compound 10.0 µM): 96%
- residual activity ([15]; compound 1.0 µM): 100%
- residual activity ([15]; compound 10.0 µM): 105%
- residual activity ([16]; compound 1.0 µM): 88%
- residual activity ([16]; compound 10.0 µM): 92%
- residual activity ([17]; compound 1.0 µM): 86%
- residual activity ([17]; compound 10.0 µM): 53%
- IC50 [18]: 12.2 µM
- residual activity ([18]; compound 1.0 µM): 76%
- residual activity ([18]; compound 10.0 µM): 25%
- residual activity ([19]; compound 1.0 µM): 92%
- residual activity ([19]; compound 10.0 µM): 110%
- residual activity ([20]; compound 1.0 µM): 90%
- residual activity ([20]; compound 10.0 µM): 110%
- IC50 [21]: 5 µM
- residual activity ([21]; compound 1.0 µM): 50%
- residual activity ([21]; compound 10.0 µM): 19%
- residual activity ([22]; compound 1.0 µM): 94%
- residual activity ([22]; compound 10.0 µM): 108%
- IC50 [23]: > 100 µM
- residual activity ([23]; compound 1.0 µM): 73%
- residual activity ([23]; compound 10.0 µM): 35%
- residual activity ([24]; compound 1.0 µM): 103%
- residual activity ([24]; compound 10.0 µM): 101%
- residual activity ([25]; compound 1.0 µM): 84%
- residual activity ([25]; compound 10.0 µM): 84%
- residual activity ([26]; compound 1.0 µM): 94%
- residual activity ([26]; compound 10.0 µM): 104%
- IC50 [27]: 0.87 µM
- IC50 [28]: 5.92 µM
- IC50 [29]: 6.51 µM
- IC50 [30]: 45 µM
- IC50 [31]: 0.003 µM
- IC50 [32]: 4.47 µM
- IC50 [33]: 8.21 µM
- IC50 [34]: 3.67 µM
- IC50 [35]: 983 µM
